According to patent publication US10285947B2, “Lyophilized preparations of melphalan flufenamide” (priority 2012, dated 2019):
Structures can show the parent of a compound that is named as a salt.

How the values were obtained:
[1] = Dissolution rate of lyophilized J1/sucrose in 5% glucose solution (Example 1); type: physicochemical; settings: lyophilized 0.1 mg J1 and 0.2 mg sucrose, 0.5 ml 5% glucose solution
Description: The speed of dissolution of melphalan flufenamide hydrochloride (J1) by addition of sucrose to the freeze-drying process of J1 was tested. Sucrose is a formulation agent Generally Considered As Safe (GRAS) according to the FDA (US Food and Drug Administration).
A solution of J1 (5 mg) was made in tert-butanol:water 1:1 (5 ml). 100 μl of the solution was added to a vial containing 0.2 mg sucrose. The vial was covered with aluminium foil and frozen on dry ice-acetone. The vial consisted of 0.1 mg J1 and 0.2 mg sucrose. The vial with sample was thereafter freeze-dried overnight. Freeze-drying was performed on a Leybold Lyovac GT2 equipment.
A 5% glucose solution (100 ml) was prepared and the internal marker 3-methoxy-benzoic acid (0.8 mg/ml) was added to the solution.
0.5 ml of the glucose solution from step 2, was added to the freeze-dried vial with J1 sample from step 1. The vial was shaken at room temperature for 15 seconds and thereafter filtered and transferred to a glass vial for J1 concentration measurement, with HPLC. The amount of dissolved J1 was determined using HPLC and a calibration curve.

[2] = Stability test of J1 solution (HPLC), Example 6; type: physicochemical
Description: Stability of the solution containing J1 and tert-butanol:water, 1:1 (v/v), was tested. A solution comprising tert-butanol:water 1:1 (v/v) and J1 at a concentration of 1 mg/ml, was left at room temperature for 5 days.

[3] = Stability of previous preparation in DMA in a glucose solution; type: physicochemical; settings: dissolved in DMA (dimethylacetamide) in a glucose solution
Source text: In previous preparations, melphalan flufenamide was obtained from synthesis as a white powder in crystalline form. This crystalline form can only be dissolved in highly acidic aqueous solutions, which for practical manufacturing purposes is impossible. […] Therefore, previously melphalan flufenamide was instead dissolved in DMA (dimethylacetamide) in a glucose solution. The preparation is feasible but is unstable: 7% degradation/h. Furthermore, dimerization occurs and the solution turns bright yellow. This preparation was, however, unreliable and the polymerization rate varied in an unacceptable manner.

tumors = settings: even at lower concentrations than melphalan; cited from earlier work
[4] = tert-butanol:water 1:1 (v/v), 1 mg/ml, room temperature, 5 days

Row | Compound | % of J1 dissolved in 15 seconds ([1]; room temperature) | concentration of J1 dissolved in the glucose solution during 15 seconds ([1]; shaken at room temperature 15 seconds) [µg/mL] | degradation compared with tert-butanol:water solution ([2]; J1 dissolved in an acidic ethanol-water solution) | amount of J1 by HPLC signal after 5 days [2, 4] [%] | decrease of J1 HPLC signal [2, 4] [%] | amount of J1 by HPLC signal, initial ([2]; tert-butanol:water 1:1 (v/v), 1 mg/ml, room temperature, start) [%] | degradation [3] [% degradation/h] | cell killing activity against tumors (tumors)
1 | CCOC(=O)[C@H](Cc1ccc(F)cc1)NC(=O)[C@@H](N)Cc1ccc(N(CCCl)CCCl)cc1 [Sample J1, melphalanyl-L-p-fluorophenylalanine ethyl ester hydrochloride] | approximately 40% | 80 | much more rapid | 85.5 | 11.7 | 97.2 |  | 
2 | CCOC(=O)[C@H](Cc1ccc(F)cc1)NC(=O)[C@@H](N)Cc1ccc(N(CCCl)CCCl)cc1 [melphalan flufenamide, melphalanyl-L-p-fluorophenylalanine ethyl ester] |  |  |  |  |  |  | 7 | increased cell killing activity
